Laboratory results published in ChEMBL document CHEMBL5465560, “Selectivity Literature for EUbOPEN Chemogenomic Library” (2024).

Columns and labels:
[1] = biological target: Activated CDC42 kinase 1 (Homo sapiens, UniProt Q07912); test: Selectivity interaction (Kinase panel (KiNativ target engagement assay in Jurkat cells)) EUB0001635a TNK2; format: cell-based; details: Selectivity number of off-targets 0.0, Selectivity number of targets 233.0, Source Knowledge https://www.sciencedirect.com/science/article/pii/S2451945619300674?via%3Dihub, at 1 µM
Chain of Activated CDC42 kinase 1 (Q07912 whole entry, looked up): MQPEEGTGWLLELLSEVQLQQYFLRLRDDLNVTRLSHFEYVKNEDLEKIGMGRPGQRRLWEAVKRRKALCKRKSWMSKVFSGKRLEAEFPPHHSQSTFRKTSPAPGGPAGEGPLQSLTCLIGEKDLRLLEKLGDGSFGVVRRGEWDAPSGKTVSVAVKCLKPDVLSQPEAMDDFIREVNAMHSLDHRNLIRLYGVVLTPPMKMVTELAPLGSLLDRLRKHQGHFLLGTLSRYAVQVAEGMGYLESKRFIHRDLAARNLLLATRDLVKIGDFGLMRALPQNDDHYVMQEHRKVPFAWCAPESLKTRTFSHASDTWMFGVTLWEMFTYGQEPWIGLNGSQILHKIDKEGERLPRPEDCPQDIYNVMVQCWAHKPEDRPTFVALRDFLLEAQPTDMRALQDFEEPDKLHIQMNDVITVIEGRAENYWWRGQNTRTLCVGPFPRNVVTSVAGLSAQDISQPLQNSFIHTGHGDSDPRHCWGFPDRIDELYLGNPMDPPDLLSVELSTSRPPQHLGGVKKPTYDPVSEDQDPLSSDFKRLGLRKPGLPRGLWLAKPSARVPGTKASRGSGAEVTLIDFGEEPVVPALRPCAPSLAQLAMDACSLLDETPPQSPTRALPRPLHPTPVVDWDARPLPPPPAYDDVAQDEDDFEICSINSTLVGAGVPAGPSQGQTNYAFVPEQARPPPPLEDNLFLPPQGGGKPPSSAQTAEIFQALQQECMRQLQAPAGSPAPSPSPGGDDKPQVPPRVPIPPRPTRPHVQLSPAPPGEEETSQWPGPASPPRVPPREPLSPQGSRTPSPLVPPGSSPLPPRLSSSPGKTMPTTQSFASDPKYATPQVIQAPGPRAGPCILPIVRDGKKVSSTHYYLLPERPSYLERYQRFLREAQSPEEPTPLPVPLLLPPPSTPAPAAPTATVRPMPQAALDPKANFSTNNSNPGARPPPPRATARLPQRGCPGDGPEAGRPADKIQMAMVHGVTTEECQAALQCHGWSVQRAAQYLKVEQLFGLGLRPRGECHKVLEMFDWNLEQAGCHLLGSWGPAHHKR

[2] = biological target: Vascular endothelial growth factor receptor 3 (Homo sapiens, UniProt P35916); test: Selectivity interaction (KinomeScan (DiscoverX)) EUB0000595a FLT4; details: at 10 µM
[3] = biological target: Dual specificity mitogen-activated protein kinase kinase 2 (Homo sapiens) (UniProt P36507); test: Selectivity interaction (KinomeScan (DiscoverX)) EUB0000595a MAP2K2; details: at 10 µM
[4] = biological target: T1, Serine/threonine-protein kinase RIO1 (Homo sapiens) (UniProt Q9BRS2); test: Selectivity interaction (KinomeScan (DiscoverX)) EUB0000695a RIOK1; details: at 100 nM
T1 sequence (whole entry): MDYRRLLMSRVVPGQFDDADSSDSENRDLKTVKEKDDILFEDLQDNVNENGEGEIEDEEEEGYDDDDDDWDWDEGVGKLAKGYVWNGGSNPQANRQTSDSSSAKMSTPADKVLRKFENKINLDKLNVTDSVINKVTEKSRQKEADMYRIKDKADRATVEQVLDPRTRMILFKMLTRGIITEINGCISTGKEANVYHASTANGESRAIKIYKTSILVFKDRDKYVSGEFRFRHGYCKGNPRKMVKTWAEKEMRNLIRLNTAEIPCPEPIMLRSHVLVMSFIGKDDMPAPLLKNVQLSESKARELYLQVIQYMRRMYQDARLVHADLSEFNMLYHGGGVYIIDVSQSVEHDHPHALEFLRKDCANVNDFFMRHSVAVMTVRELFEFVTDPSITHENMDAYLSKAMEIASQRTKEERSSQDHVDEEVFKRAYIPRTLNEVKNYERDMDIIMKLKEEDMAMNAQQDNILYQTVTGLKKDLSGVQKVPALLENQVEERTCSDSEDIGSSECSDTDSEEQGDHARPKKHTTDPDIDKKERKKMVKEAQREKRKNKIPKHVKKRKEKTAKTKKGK

[5] = biological target: T2, Rhodopsin kinase GRK1 (Homo sapiens) (UniProt Q15835); test: Selectivity interaction (KinomeScan (DiscoverX)) EUB0001079a GRK1; details: at 1 µM
T2 sequence (whole entry): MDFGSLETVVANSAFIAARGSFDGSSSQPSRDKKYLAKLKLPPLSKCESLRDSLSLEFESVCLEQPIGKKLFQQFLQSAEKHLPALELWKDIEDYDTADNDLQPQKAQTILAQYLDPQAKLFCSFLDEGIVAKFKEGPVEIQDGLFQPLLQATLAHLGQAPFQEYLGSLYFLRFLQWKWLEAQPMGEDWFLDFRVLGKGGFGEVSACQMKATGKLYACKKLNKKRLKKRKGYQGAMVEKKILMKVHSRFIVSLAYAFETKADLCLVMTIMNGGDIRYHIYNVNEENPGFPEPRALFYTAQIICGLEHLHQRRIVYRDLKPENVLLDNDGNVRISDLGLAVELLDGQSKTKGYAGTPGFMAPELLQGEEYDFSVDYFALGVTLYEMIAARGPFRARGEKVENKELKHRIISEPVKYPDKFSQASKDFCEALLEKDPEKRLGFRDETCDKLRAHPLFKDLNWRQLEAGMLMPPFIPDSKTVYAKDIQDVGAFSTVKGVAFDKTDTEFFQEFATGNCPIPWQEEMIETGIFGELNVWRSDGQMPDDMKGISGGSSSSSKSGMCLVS

[6] = biological target: CREB-binding protein (Homo sapiens, UniProt Q92793); test: Selectivity interaction (Bromodomain panel (DSF asssay)) EUB0000270b CREBBP
[7] = biological target: Mitogen-activated protein kinase 3 (Homo sapiens, UniProt P27361); test: Selectivity interaction (ActivX KiNativ screen (ex vivo kinase selectivity in human PBMCs)) EUB0001619a MAPK3; format: cell-based; details: PBMC, at 1 µM
[8] = biological target: High affinity nerve growth factor receptor (Homo sapiens, UniProt P04629); test: Selectivity interaction (KinomeScan (DiscoverX)) EUB0000607a NTRK1; details: at 10 µM
Chain of High affinity nerve growth factor receptor (P04629 33-796 limits assumed): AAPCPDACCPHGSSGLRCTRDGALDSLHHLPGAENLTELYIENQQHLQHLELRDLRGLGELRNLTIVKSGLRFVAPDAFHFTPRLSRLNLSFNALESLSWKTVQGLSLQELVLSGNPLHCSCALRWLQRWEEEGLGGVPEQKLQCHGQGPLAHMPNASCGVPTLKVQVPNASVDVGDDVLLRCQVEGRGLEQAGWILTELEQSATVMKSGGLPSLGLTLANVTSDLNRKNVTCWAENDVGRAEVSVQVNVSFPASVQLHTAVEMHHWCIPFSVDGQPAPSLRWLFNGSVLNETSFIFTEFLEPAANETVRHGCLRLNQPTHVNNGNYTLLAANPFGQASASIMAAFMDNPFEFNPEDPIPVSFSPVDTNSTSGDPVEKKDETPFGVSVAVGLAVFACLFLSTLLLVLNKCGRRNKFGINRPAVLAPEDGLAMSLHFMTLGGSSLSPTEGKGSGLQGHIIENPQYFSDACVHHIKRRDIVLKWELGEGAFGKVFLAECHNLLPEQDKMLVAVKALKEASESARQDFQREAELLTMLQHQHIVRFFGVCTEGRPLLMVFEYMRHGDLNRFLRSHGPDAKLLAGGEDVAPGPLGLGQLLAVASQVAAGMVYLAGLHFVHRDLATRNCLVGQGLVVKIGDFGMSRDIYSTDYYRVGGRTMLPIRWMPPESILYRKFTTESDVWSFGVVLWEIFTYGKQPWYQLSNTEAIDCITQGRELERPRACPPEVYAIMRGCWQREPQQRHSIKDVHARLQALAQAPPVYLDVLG

[9] = biological target: Serine/threonine-protein kinase 24 (Homo sapiens) (UniProt Q9Y6E0); test: Selectivity interaction (ActivX KiNativ screen (kinase selectivity in THP-1 cell lysates)) EUB0000639a STK24; format: subcellular; details: lysate, at 1 µM
Chain of Serine/threonine-protein kinase 24 (Homo sapiens) (Q9Y6E0 whole entry, looked up): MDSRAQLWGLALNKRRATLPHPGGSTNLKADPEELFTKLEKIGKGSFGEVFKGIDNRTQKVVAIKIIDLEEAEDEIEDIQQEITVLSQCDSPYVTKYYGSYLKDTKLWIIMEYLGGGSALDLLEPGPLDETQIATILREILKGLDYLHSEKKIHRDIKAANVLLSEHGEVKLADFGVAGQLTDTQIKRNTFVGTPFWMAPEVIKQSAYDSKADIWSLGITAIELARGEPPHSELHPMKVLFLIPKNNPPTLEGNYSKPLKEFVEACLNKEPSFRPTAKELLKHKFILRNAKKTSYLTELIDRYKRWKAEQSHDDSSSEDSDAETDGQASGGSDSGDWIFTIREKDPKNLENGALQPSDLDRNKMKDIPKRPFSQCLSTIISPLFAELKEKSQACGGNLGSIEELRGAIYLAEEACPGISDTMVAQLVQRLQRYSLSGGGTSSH

[10] = biological target: Serine/threonine-protein kinase N1 (Homo sapiens, UniProt Q16512); test: Selectivity interaction (ActivX KiNativ screen (kinase selectivity in THP-1 cell lysates)) EUB0000639a PKN1; format: subcellular; details: lysate, at 5 µM
Chain of Serine/threonine-protein kinase N1 (Q16512 2-942 limits assumed): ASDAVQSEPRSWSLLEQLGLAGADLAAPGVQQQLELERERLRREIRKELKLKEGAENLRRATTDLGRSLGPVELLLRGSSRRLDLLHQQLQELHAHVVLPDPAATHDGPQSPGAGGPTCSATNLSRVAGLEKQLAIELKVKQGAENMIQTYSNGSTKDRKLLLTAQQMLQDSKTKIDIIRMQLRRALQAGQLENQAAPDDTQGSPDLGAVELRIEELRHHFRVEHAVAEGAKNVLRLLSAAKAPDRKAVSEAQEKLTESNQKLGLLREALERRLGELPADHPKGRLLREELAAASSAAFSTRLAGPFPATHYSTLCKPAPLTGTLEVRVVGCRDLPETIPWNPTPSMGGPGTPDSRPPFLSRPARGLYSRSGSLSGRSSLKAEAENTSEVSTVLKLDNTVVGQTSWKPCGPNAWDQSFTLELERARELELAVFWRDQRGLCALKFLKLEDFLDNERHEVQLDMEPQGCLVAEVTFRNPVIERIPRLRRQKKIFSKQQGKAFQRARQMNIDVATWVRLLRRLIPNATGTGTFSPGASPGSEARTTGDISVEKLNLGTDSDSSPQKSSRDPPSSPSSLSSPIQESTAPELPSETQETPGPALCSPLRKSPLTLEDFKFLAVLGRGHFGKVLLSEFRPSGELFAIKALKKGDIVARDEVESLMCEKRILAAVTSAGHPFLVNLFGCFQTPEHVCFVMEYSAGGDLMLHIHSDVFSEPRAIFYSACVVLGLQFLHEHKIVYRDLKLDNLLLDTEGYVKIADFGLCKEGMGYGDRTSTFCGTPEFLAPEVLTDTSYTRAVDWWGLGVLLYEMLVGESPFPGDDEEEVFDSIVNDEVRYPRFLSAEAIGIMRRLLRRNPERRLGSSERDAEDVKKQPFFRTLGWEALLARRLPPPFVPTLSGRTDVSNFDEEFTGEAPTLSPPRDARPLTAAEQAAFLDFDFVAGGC

[11] = test system: Fibroblast growth factor receptor 3 (Homo sapiens), P22607 [G697C]; test: (§1) Selectivity interaction (Ambit KINOMEscan and KiNATiv profiling in Jurkat cells) EUB0000090b FGFR3; format: cell-based; details: at 1 µM
Chain of Fibroblast growth factor receptor 3 (Homo sapiens), P22607 [G697C] (P22607 whole entry G697C): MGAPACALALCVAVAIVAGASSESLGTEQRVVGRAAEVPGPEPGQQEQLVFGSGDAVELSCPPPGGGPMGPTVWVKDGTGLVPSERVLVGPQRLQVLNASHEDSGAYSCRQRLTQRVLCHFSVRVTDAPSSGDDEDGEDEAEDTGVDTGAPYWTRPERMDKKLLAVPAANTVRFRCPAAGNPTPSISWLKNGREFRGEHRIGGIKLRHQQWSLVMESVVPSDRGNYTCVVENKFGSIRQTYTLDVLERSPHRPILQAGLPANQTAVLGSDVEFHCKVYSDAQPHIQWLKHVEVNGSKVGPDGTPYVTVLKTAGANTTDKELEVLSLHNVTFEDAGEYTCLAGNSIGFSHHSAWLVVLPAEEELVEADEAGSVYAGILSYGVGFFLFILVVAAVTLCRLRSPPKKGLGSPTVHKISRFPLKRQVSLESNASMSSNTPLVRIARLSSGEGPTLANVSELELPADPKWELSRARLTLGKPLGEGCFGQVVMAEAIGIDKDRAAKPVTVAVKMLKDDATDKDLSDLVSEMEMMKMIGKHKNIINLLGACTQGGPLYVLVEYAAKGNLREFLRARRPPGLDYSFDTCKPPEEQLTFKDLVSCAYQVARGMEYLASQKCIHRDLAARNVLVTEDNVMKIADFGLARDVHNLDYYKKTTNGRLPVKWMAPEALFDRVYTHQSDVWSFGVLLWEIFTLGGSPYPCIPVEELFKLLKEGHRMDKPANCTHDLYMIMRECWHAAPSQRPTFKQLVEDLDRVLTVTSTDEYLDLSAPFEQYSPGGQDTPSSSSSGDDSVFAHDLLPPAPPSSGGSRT

[12] = biological target: Fibroblast growth factor receptor 3 (Homo sapiens, UniProt P22607); test: as §1; format: cell-based; details: at 1 µM
Chain of Fibroblast growth factor receptor 3 (P22607 23-806 limits assumed): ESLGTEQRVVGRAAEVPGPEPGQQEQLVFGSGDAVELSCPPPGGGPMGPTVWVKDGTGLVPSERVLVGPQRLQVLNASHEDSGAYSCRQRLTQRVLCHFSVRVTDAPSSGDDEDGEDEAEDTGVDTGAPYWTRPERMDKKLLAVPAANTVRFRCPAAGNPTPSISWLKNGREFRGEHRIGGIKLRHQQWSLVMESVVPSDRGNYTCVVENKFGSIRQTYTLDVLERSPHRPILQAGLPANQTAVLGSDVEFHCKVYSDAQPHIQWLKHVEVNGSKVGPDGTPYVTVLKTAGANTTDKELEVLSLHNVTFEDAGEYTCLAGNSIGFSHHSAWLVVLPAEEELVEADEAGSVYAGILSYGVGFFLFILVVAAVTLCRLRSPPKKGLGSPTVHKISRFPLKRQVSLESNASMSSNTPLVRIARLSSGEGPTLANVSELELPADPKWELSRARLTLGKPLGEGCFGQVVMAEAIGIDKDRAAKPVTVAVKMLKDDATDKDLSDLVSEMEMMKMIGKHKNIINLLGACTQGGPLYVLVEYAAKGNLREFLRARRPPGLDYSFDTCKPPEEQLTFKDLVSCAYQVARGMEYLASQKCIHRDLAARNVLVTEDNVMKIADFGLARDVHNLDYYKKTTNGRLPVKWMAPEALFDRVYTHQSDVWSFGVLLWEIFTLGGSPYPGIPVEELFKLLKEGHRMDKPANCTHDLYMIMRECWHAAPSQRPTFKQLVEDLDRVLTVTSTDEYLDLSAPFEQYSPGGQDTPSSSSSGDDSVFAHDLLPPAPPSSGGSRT

[13] = Selectivity interaction (Ambit KINOMEscan and KiNATiv profiling in Jurkat cells) EUB0000090b PKNB; details: Selectivity number of off-targets 9; Selectivity number of targets 456; Source Knowledge https://www.nature.com/articles/nchembio.2166; at 1 µM

## C=CC(=O)Nc1ccc(C(=O)Nc2[nH]nc3c2CN(C(=O)N[C@H](CN(C)C)c2ccccc2)C3(C)C)cc1
[1]
  % of engagement: -3.6%

## COCC(=O)NC/C=C/c1ccc2ncnc(Nc3ccc(Oc4ccc(C)nc4)c(C)c3)c2c1 [CP-724714]
[2]
  % of control: 98%
[3]
  % of control: 11%

## Cc1cc(F)c(C(=O)Nc2cccc(-c3nncn3C(C)C)n2)cc1-n1cnc(C2CC2)c1
[4]
  % of control: 100%

## Nc1cnc(N2CCc3cc(S(=O)(=O)Nc4c(F)cc(Cl)cc4F)cc(N4CCCC4=O)c32)nc1 [TP-020n]
[5]
  % of control: 100%

## Cc1cc(CN)cc(C)c1-c1ncn(C)c1-c1cncn1C
[6]
  dTM: -1.89 K

## N#Cc1cccc(-c2c[nH]c3ncnc(N4CCOCC4)c23)c1
[7]
  % of inhibition: 3%

## CNC(=O)Nc1ccc(-c2nc(N3CC4CCC(C3)O4)c3cnn(C4CCC5(CC4)OCCO5)c3n2)cc1
[8]
  % of control: 100%

## CC[C@@H]1[C@H](F)C(=O)N[C@@H]1COc1nccc2cc(C(N)=O)c(OC)cc12 [ZIMLOVISERTIB]
[9]
  % of inhibition: 5.9%
[10]
  % of inhibition: 0.1%

## CN(C)C/C=C/C(=O)Nc1ccc(C(=O)N2CCCC(Nc3ncc(Cl)c(-c4c[nH]c5ccccc45)n3)C2)cc1 (stereo not drawn)
[11]
  % of control: 72%
[12]
  % of control: 92%
[13]
  % of control: 38%
